Converted amounts (≈) assume the structure as drawn.
Experiments:
in vivo [1] = details: rat
[2] = Oral bioavailability in rat at 10 mg/kg; type: ADME, organism-based; details: in vivo
in vitro [3] = details: rat, liver microsomes
in vivo [4] = details: rat, plasma
[5] = Solubility at pH 7.4; type: physicochemical; details: buffer
in vivo [6] = details: rat, iv, 1 mg/kg
in vitro [7] = details: human, liver microsomes

AUC (in vivo [1])	bioavailability [2]	half-life (in vitro [3])	half-life (in vivo [4])	solubility [5]	clearance (in vivo [6])	half-life (in vitro [7])	SMILES
1290 ng·h/mL	64%	7 min	162 min	16 µg/mL (≈ 43.5 µM)	82 mL/min/kg	21 min	O=C(Nc1cc2cc[nH]c(=O)c2cc1Cl)C(NC1CC1)c1ccccc1 (stereo not drawn)
30 ng·h/mL	2%	–	–	6 µg/mL (≈ 16.9 µM)	–	–	CN(C)C(C(=O)Nc1cc2cc[nH]c(=O)c2cc1Cl)c1ccccc1 (stereo not drawn)
–	–	–	–	> 32 µg/mL	–	> 90 min	C[C@@H](N)[C@H]1CC[C@H](C(=O)Nc2ccncc2)CC1.Cl.Cl
–	–	–	–	> 60 µg/mL	–	–	O=S(=O)(c1cccc2cnccc12)N1CCCNCC1 [FASUDIL]

Reference: ChEMBL document CHEMBL1155525, “Substituted 2H-isoquinolin-1-one as potent Rho-Kinase inhibitors. Part 1: Hit-to-lead account” (Bioorg Med Chem Lett, 2010)
